In the first test the target is T1, Metabotropic glutamate receptor 4 (Homo sapiens, UniProt Q14833). The experiment in a line: Agonistic activity towards group III Metabotropic glutamate receptor stably expressed in AV12 cells when tested up to 200 uM; NS means no significant activity. It counts as functional, cell-based.
T1 sequence (Q14833 whole entry): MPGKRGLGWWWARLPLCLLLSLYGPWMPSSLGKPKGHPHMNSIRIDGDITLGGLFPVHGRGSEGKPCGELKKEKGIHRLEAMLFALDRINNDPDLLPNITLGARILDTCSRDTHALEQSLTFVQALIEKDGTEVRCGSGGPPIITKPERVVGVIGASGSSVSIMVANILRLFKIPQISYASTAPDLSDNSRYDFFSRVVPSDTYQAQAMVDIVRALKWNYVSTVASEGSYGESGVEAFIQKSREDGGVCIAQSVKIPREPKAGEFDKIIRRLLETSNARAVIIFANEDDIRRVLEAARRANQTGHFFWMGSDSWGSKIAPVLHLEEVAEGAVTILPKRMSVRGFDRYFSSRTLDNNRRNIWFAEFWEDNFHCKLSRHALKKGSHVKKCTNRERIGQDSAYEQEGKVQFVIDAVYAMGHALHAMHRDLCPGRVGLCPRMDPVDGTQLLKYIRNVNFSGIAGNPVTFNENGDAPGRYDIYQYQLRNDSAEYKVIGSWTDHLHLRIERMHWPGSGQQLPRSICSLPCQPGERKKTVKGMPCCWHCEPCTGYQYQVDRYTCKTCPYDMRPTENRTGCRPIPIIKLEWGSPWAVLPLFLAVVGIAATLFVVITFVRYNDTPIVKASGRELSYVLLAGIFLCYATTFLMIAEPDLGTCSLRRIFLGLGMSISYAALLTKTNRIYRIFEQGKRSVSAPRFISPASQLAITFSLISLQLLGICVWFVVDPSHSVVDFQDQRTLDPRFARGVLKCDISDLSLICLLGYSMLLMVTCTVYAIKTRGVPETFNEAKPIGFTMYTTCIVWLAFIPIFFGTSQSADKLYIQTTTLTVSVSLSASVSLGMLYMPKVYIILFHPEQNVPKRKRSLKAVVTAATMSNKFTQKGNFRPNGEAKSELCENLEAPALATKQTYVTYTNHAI
Regarding `NC1(C(=O)O)CCCC1CP(=O)(O)O` (stereo in doubt; 7), the Activity result was “No significant activity”.
On the same count and under the same terms, to `NC1(C(=O)O)CCC1CP(=O)(O)O` (stereo in doubt; 6) belongs “No significant activity”.
On the same count and under the same terms, in the case of `NC1(C(=O)O)CCCC1CP(=O)(O)O` (stereo in doubt; 8) it was “No significant activity”; in that of `NC1(C(=O)O)CCC1CP(=O)(O)O` (stereo in doubt; 5), “No significant activity”.

For the next test, the target named is T1, Metabotropic glutamate receptor 4. Kind of test: Effective concentration which exhibit agonistic activity at metabotropic glutamate 4 receptor stably expressed in AV12 cells. It is filed as functional, cell-based.
One may read the EC50 as the concentration needed to bring the measured effect to its halfway point. Read a low EC50 as greater potency. `NC1(C(=O)O)CC1CP(=O)(O)O` (stereo in doubt; 4): the concentration giving a half-maximal response (EC50) stood at 0.58 µM.
For the molecule `NC1(C(=O)O)CC1CP(=O)(O)O` (stereo in doubt; 3), the response was half-maximal at 7.9 µM (EC50). Against the preceding molecule, the EC50 is about 14-fold higher.
